Reference: patent publication US6784153B1, “Methods of homing molecules to lung using membrane dipeptidase” (The Burnham Institute, priority 1998, dated 2004)
“Also recorded” adds a separate entry of the source.

How the values were obtained:
primary brain cells = assay: phage binding assay on primary brain cells; parameters: species or system mice; conditions: in vitro
Method: Phage binding to primary cells was performed as follows. Briefly, Balb/c mice (Harlan Sprague Dawley) were anesthetized with 0.017 ml/g of Avertin as described in Gardner et al., Lab. Animal Sci. 45:199-204 (1995), which is incorporated herein by reference. Under deep anesthesia, mice were perfused through the heart with 10 ml Dulbecco's modified Eagle's medium (DMEM; Irvine Scientific; Santa Ana, Calif.). The lungs, kidneys and brain were then collected, minced, placed in 2 ml of DMEM containing 0.5% BSA (Intergen; Purchase, N.Y.) and 0.5 μg/ml collagenase V (SIGMA) and incubated at 37° C. for 25 minutes. Following collagenase treatment, the tissue was forced through a […] pore cell strainer (Becton Dickinson; Franklin Lake, N.J.). The filtered cells were washed once with 10 ml DMEM supplemented with 10% serum. […] To ensure an equal input of the different phage to be tested, phage were titered several times using K91Kan bacteria (Smith and Scott, supra, 1993).
For the binding reaction, 10^9 transducing units (TU) of phage were incubated with 5×10^6 cells in 1 ml DMEM supplemented with 10% serum. The binding was performed at 4° C. for 2 hours with gentle agitation. […] Plates were incubated at 37° C. overnight before the colonies were counted (transducing units, TU).

lung primary cells = assay: phage binding assay on lung primary cells; parameters: species or system mice
Method: Phage binding to primary cells was performed as follows. Briefly, Balb/c mice (Harlan Sprague Dawley) were anesthetized with 0.017 ml/g of Avertin as described in Gardner et al., Lab. […] Under deep anesthesia, mice were perfused through the heart with 10 ml Dulbecco's modified Eagle's medium (DMEM; Irvine Scientific; Santa Ana, Calif.). The lungs, kidneys and brain were then collected, minced, placed in 2 ml of DMEM containing 0.5% BSA (Intergen; Purchase, N.Y.) and 0.5 μg/ml collagenase V (SIGMA) and incubated at 37° C. for 25 minutes. Following collagenase treatment, the tissue was forced through a […] pore cell strainer (Becton Dickinson; Franklin Lake, N.J.). The filtered cells were washed once with 10 ml DMEM supplemented with 10% serum.
For the binding reaction, 10^9 transducing units (TU) of phage were incubated with 5×10^6 cells in 1 ml DMEM supplemented with 10% serum. The binding was performed at 4° C. for 2 hours with gentle agitation. After the binding reaction, the cells were washed four times with 1 ml of DMEM supplemented with 10% serum at room temperature for 5 to 10 minutes each time. The cells were centrifuged, and the cell pellet resuspended in 100 μl of DMEM and transferred to a new tube. […] The bacteria were then diluted in 10 ml of LB culture media supplemented with 0.2 μg/ml tetracycline, and incubated for another 30 minutes at room temperature. Serial dilutions of the bacterial culture were plated on LB plates containing 40 μg/ml tetracycline. Plates were incubated at 37° C. overnight before the colonies were counted (transducing units, TU).

mouse B16 = assay: experimental lung metastasis of B16 melanoma cells; assay type: in vivo, mice; conditions: mouse B16 melanoma cell line
Text: As disclosed herein, selective homing of GFE-1 (SEQ ID NO: 1) to lung endothelium in vivo is mediated by the cell surface protease, MDP.

[1] = test system: C8161 human melanoma cells; conditions: cells and peptide mixture cultured overnight; data not shown
rat lung blood vessels = assay: targeting of rat lung blood vessels by injected phage; assay type: in vivo; conditions: phage injected in the circulation
[2] = test system: C8161 human melanoma cells; assay: experimental lung metastasis of C8161 human melanoma cells; assay type: in vivo, mice; conditions: 10^5 C8161 cells coadministered with 250 μg peptide, tail vein; five weeks after injection; listed as GFE-1
Method: Experimental lung metastasis was induced in mice using C8161 human melanoma cells essentially as described in Arap et al., Science 279:377-380 (1998) and Pasqualini et al., Nature Med. 11:1197-1203, each of which is incorporated herein by reference. Briefly, C8161 cells were cultured to 75% confluence and then collected with 2.5 mM EDTA/PBS. The C8161 cancer cells were injected into the tail vein of female nude BALB/c mice (two months old) at a concentration of 10^5 cells per animal. Two sets of five mice were injected with the cells alone; cells with 250 μg control CARAC peptide (SEQ ID NO: 443) or cells with 250 μg GFE-1 peptide (SEQ ID NO: 1). Each injection was in a total volume of 200 μl.
Mice were sacrificed five weeks after injection, and the lungs collected and weighed.

Which results are given for CGFECVRQCPERC [lung homing peptide]?
phage binding to primary brain cells (primary brain cells): no specific binding; inhibition of GFE-1 phage binding to lung cells (lung primary cells; 150 μM peptide): ~70%; phage bound by primary lung cells relative to insertless fd-tet phage (lung primary cells; 10^9 TU phage, 5×10^6 cells, 4° C., 2 hours): about 60 fold; experimental lung metastasis (mouse B16): inhibit experimental lung metastasis; toxicity to the melanoma cells [1]: Neither the GFE-1 (SEQ ID NO: 1) or CARAC (SEQ ID NO: 443) peptides exhibited toxicity; targeting of rat lung blood vessels (rat lung blood vessels): selectively target rat lung blood vessels; lung metastasis (lung weight) [2]: inhibit experimental lung metastasis; also recorded: significantly less; also recorded: inhibits lung metastasis of human melanoma cells
